Measurements reported in PubChem BioAssay (NCI).
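Dose response: 5 concentrations. Exposure: 48 h. Format: 96-well plates. Endpoint: linear interpolation; highest concentration if not reached. Abbreviation: GI50, concentration required for 50% inhibition of growth. TGI marks complete inhibition of growth.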

What was measured:
Assay in all cases: DTP human tumour cell line panel, 48 h
A549 NSCLC = tested on: A549 NSCLC
COLO 205 colon = tested on: COLO 205 colon
HCT-116 colon = tested on: HCT-116 colon
HL-60(TB) leukemia = tested on: HL-60(TB) leukemia
IGROV1 ovarian = tested on: IGROV1 ovarian
OVCAR-4 ovarian = tested on: OVCAR-4 ovarian
RPMI-8226 leukemia = tested on: RPMI-8226 leukemia
SK-MEL-2 melanoma = tested on: SK-MEL-2 melanoma
SNB-19 CNS = tested on: SNB-19 CNS
UACC-257 melanoma = tested on: UACC-257 melanoma

CC#CC1C2CCCC1(CSc1ccccc1)NC(=O)O2 (stereo unspecified)
TGI (A549 NSCLC): > 100 µM
TGI (COLO 205 colon): > 100 µM
TGI (HCT-116 colon): > 100 µM
TGI (HL-60(TB) leukemia): > 100 µM
TGI (IGROV1 ovarian): > 100 µM
TGI (OVCAR-4 ovarian): > 100 µM
TGI (RPMI-8226 leukemia): > 100 µM
TGI (SK-MEL-2 melanoma): > 100 µM
TGI (SNB-19 CNS): > 100 µM
TGI (UACC-257 melanoma): > 100 µM

CN(C)c1ccc(/C=C/C2=[N+](C)c3ccccc3C2(C)C)cc1
GI50 (A549 NSCLC): 2.64 µM
TGI (A549 NSCLC): 14.9 µM
GI50 (COLO 205 colon): 0.505 µM
TGI (COLO 205 colon): 2.07 µM
GI50 (HCT-116 colon): 0.44 µM
TGI (HCT-116 colon): 20.3 µM
GI50 (HL-60(TB) leukemia): 0.231 µM
TGI (HL-60(TB) leukemia): 0.801 µM
GI50 (IGROV1 ovarian): 2.19 µM
TGI (IGROV1 ovarian): > 100 µM
GI50 (OVCAR-4 ovarian): 1.63 µM
TGI (OVCAR-4 ovarian): 31.5 µM
GI50 (RPMI-8226 leukemia): 0.247 µM
TGI (RPMI-8226 leukemia): 3.48 µM
GI50 (SK-MEL-2 melanoma): 1.61 µM
TGI (SK-MEL-2 melanoma): 16.8 µM
GI50 (SNB-19 CNS): 0.691 µM
TGI (SNB-19 CNS): 18.4 µM
GI50 (UACC-257 melanoma): 0.658 µM
TGI (UACC-257 melanoma): 6.17 µM

CC(=O)OC12COC1CC(O)C1(C)C(=O)C(O)C3=C(C)C(O)CC(O)(C(OC(=O)c4ccccc4)C21)C3(C)C (stereo unspecified)
TGI (A549 NSCLC): > 100 µM
TGI (COLO 205 colon): 5.29 µM
TGI (HCT-116 colon): > 73.6 µM
TGI (HL-60(TB) leukemia): 24.3 µM
TGI (IGROV1 ovarian): > 100 µM
TGI (OVCAR-4 ovarian): > 100 µM
TGI (RPMI-8226 leukemia): > 59.8 µM
GI50 (SK-MEL-2 melanoma): 1.84 µM
TGI (SK-MEL-2 melanoma): 6.51 µM
TGI (SNB-19 CNS): > 100 µM
TGI (UACC-257 melanoma): > 100 µM

COc1ccc(/C=C/C(=O)c2ccc(OC)c(OC)c2)cc1O
GI50 (A549 NSCLC): 2.99 µM
TGI (A549 NSCLC): 15.1 µM
GI50 (COLO 205 colon): 12.5 µM
TGI (COLO 205 colon): 25 µM
GI50 (HCT-116 colon): 3.35 µM
TGI (HCT-116 colon): 12.8 µM
GI50 (HL-60(TB) leukemia): 13.9 µM
TGI (HL-60(TB) leukemia): 52.2 µM
GI50 (IGROV1 ovarian): 7.03 µM
TGI (IGROV1 ovarian): 39.9 µM
GI50 (OVCAR-4 ovarian): 8.45 µM
TGI (OVCAR-4 ovarian): 20.8 µM
GI50 (RPMI-8226 leukemia): 3.19 µM
TGI (RPMI-8226 leukemia): 15.1 µM
GI50 (SK-MEL-2 melanoma): 14.9 µM
TGI (SK-MEL-2 melanoma): 32.9 µM
GI50 (SNB-19 CNS): 6.42 µM
TGI (SNB-19 CNS): 20.8 µM
GI50 (UACC-257 melanoma): 13.8 µM
TGI (UACC-257 melanoma): 26.9 µM

CCN(CC)C1CCC(Nc2c(C(C)=O)cnc3ccc(-c4ccc(O)c(Cl)c4)cc23)CC1 (stereo unspecified)
GI50 (A549 NSCLC): 0.58 µM
TGI (A549 NSCLC): 5.52 µM
GI50 (COLO 205 colon): 10.7 µM
TGI (COLO 205 colon): 40.7 µM
GI50 (HCT-116 colon): 0.568 µM
TGI (HCT-116 colon): 4.59 µM
GI50 (HL-60(TB) leukemia): 0.15 µM
TGI (HL-60(TB) leukemia): 1.51 µM
GI50 (IGROV1 ovarian): 0.253 µM
TGI (IGROV1 ovarian): 5.47 µM
GI50 (OVCAR-4 ovarian): 0.77 µM
TGI (OVCAR-4 ovarian): 13.6 µM
GI50 (RPMI-8226 leukemia): 0.393 µM
TGI (RPMI-8226 leukemia): 2.1 µM
GI50 (SK-MEL-2 melanoma): 4.15 µM
TGI (SK-MEL-2 melanoma): 28.2 µM
GI50 (SNB-19 CNS): 1.75 µM
TGI (SNB-19 CNS): 69.6 µM
GI50 (UACC-257 melanoma): 2.77 µM
TGI (UACC-257 melanoma): 18.3 µM

Cn1c(=O)c(Oc2ccc(F)cc2F)cc2cnc(NC3CCS(=O)(=O)CC3)nc21
GI50 (A549 NSCLC): > 25 µM
TGI (A549 NSCLC): > 25 µM
GI50 (COLO 205 colon): > 25 µM
TGI (COLO 205 colon): > 25 µM
GI50 (HCT-116 colon): > 25 µM
TGI (HCT-116 colon): > 25 µM
GI50 (HL-60(TB) leukemia): > 25 µM
TGI (HL-60(TB) leukemia): > 25 µM
GI50 (IGROV1 ovarian): > 21.2 µM
TGI (IGROV1 ovarian): > 25 µM
GI50 (OVCAR-4 ovarian): > 25 µM
TGI (OVCAR-4 ovarian): > 25 µM
GI50 (RPMI-8226 leukemia): > 25 µM
TGI (RPMI-8226 leukemia): > 25 µM
GI50 (SK-MEL-2 melanoma): > 25 µM
TGI (SK-MEL-2 melanoma): > 25 µM
GI50 (SNB-19 CNS): > 25 µM
TGI (SNB-19 CNS): > 25 µM
GI50 (UACC-257 melanoma): > 25 µM
TGI (UACC-257 melanoma): > 25 µM

Clc1ccc(-c2cc(-c3ccccc3)nc(NCCNc3ccnc4cc(Cl)ccc34)n2)cc1
GI50 (A549 NSCLC): 1.71 µM
TGI (A549 NSCLC): 3.45 µM
GI50 (COLO 205 colon): 1.68 µM
TGI (COLO 205 colon): 3.66 µM
GI50 (HCT-116 colon): 1.65 µM
TGI (HCT-116 colon): 3.41 µM
GI50 (HL-60(TB) leukemia): 1.85 µM
TGI (HL-60(TB) leukemia): 3.76 µM
GI50 (IGROV1 ovarian): 1.6 µM
TGI (IGROV1 ovarian): 3.27 µM
GI50 (OVCAR-4 ovarian): 1.79 µM
TGI (OVCAR-4 ovarian): 3.83 µM
GI50 (RPMI-8226 leukemia): 2.03 µM
TGI (RPMI-8226 leukemia): 4.54 µM
GI50 (SK-MEL-2 melanoma): 1.73 µM
TGI (SK-MEL-2 melanoma): 3.23 µM
GI50 (SNB-19 CNS): 1.72 µM
TGI (SNB-19 CNS): 3.59 µM
GI50 (UACC-257 melanoma): 2 µM
TGI (UACC-257 melanoma): 4.09 µM
